Test results from patent US20250388589A1, “TRICYCLIC HETEROCYCLIC DERIVATIVES, COMPOSITIONS AND USES THEREOF” (Danatlas Pharmaceuticals Co., Ltd., priority 2022, published 2025).

Key:
[1] = biological target: hPARG (C-terminal His6-tag) (Homo sapiens (Human), UniProt Q86W56); assay: PARG Enzymatic Activity Assay (HTRF); type: biochemical; conditions: hPARG 65 pM final, biotinylated-NAD ribosylated PARP1 8 nM final
Outline: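 E. coli-expressed enzyme (65 pM final) preincubated 60 min RT with compounds (10-point 4-fold dilution, duplicate) in 50 mM Tris pH 7.4, 3 mM EDTA, 1 mM DTT, 50 mM KCl, 0.01% Tween 20. Biotinylated-NAD ribosylated PARP1 substrate (8 nM final) reacted 10 min RT; Eu-streptavidin/anti-6HIS-XL665 HTRF read 665/620 nm after 60 min. IC50 from 4-parameter Hill fit.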

[2] = system: Kuramochi cell line; assay: Cell Viability Assay (Cell Titer-Glo, 7 days); type: cell-based; conditions: 168 h, Kuramochi cells, 7 days incubation, read-out: PARG Cell viability (IC50)
Outline: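 Kuramochi cells in RPMI with 10% FBS, seeded at 400 cells/well, were treated with a 9-point 3-fold dilution series in duplicate for 7 days at 37 °C, 5% CO2. Viability by CellTiter-Glo luminescence, normalised to DMSO and medium-only controls; IC50 from 4-parameter Hill fit.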

Chain of hPARG (C-terminal His6-tag) (Q86W56 whole entry): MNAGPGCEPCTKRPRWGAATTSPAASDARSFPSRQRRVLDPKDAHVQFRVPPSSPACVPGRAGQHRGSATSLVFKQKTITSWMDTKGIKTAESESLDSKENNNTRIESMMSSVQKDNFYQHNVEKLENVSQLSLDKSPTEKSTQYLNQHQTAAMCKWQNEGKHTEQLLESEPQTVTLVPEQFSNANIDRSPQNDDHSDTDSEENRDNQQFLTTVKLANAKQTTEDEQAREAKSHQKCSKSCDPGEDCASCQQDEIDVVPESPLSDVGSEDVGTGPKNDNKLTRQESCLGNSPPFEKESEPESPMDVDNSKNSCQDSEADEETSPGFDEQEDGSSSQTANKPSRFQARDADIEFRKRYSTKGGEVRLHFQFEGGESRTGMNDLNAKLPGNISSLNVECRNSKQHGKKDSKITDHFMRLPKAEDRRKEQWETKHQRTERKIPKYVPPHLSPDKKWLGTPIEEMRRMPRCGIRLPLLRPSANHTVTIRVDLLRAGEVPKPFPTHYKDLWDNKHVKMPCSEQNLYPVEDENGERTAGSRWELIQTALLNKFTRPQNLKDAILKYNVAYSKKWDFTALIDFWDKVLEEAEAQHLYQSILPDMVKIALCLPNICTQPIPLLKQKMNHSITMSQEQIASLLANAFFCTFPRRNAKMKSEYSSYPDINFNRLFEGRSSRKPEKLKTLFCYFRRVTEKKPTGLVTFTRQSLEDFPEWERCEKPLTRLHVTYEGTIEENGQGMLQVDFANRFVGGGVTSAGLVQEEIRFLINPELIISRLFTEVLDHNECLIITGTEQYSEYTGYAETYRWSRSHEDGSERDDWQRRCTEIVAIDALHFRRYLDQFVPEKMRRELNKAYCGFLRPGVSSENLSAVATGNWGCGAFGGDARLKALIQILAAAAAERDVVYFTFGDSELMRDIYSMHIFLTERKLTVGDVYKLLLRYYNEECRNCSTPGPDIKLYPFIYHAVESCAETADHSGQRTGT

Row | SMILES | IC50 [1] [nM] | IC50 [2] [nM]
1 | CC(C)C(=O)N1CCC(c2ncnc3c2c2ccc(S(=O)(=O)NC4(C#N)CC4)cc2n3-c2nnc(C(F)F)s2)C[C@@H]1C (stereo partly drawn) [Example 151, N-(1-Cyanocyclopropyl)-9-(5-(difluoromethyl)-1,3,4-thiadiazol-2-yl)-4-((2S)-1-isobutyryl-2-methylpiperidin-4-yl)-9H-pyrimido[4,5-b]indole-7-sulfonamide] | < 100 | < 100
2 | CN(C)C(=O)N1CC=C(c2ncnc3c2c2ccc(S(=O)(=O)NC4(C)CC4)cc2n3-c2nnc(C(F)F)s2)CC1 [Example 152, 4-(9-(5-(Difluoromethyl)-1,3,4-thiadiazol-2-yl)-7-(N-(1-methylcyclopropyl)sulfamoyl)-9H-pyrimido[4,5-b]indol-4-yl)-N,N-dimethyl-3,6-dihydropyridine-1(2H)-carboxamide] | < 100 | < 100
3 | CN(C)C(=O)N1CCC(c2ncnc3c2c2ccc(S(=O)(=O)NC4(C)CC4)cc2n3-c2nnc(C(F)F)s2)CC1 [Example 153, 4-(9-(5-(Difluoromethyl)-1,3,4-thiadiazol-2-yl)-7-(N-(1-methylcyclopropyl)sulfamoyl)-9H-pyrimido[4,5-b]indol-4-yl)-N,N-dimethylpiperidine-1-carboxamide] | < 100 | < 100
4 | CC(C)C(=O)N1CCN(c2ncnc3c2c2ccc(S(=O)(=O)NC4(C#N)CC4)cc2n3-c2nnc(C(F)F)s2)C[C@@H]1CO [Example 154, (R)—N-(1-Cyanocyclopropyl)-9-(5-(difluoromethyl)-1,3,4-thiadiazol-2-yl)-4-(3-(hydroxymethyl)-4-isobutyrylpiperazin-1-yl)-9H-pyrimido[4,5-b]indole-7-sulfonamide] | < 100 | < 100
5 | N#CC1(NS(=O)(=O)c2ccc3c4c(N5CCn6c(nnc6C(F)(F)F)C5)ncnc4n(-c4nnc(C(F)F)s4)c3c2)CC1 [Example 156, N-(1-cyanocyclopropyl)-9-(5-(difluoromethyl)-1,3,4-thiadiazol-2-yl)-4-(3-(trifluoromethyl)-5,6-dihydro-[1,2,4]triazolo[4,3-a]pyrazin-7(8H)-yl)-9H-pyrimido[4,5-b]indole-7-sulfonamide] | < 100 | < 100
6 | CCCN1CCN(c2ncnc3c2c2ccc(S(=O)(=O)NC4(C#N)CC4)cc2n3-c2nnc(C(F)F)s2)C[C@@H]1C [Example 157, (S)-N-(1-cyanocyclopropyl)-9-(5-(difluoromethyl)-1,3,4-thiadiazol-2-yl)-4-(3-methyl-4-propylpiperazin-1-yl)-9H-pyrimido[4,5-b]indole-7-sulfonamide] | < 100 | < 100
7 | CC(C)CN1CCN(c2ncnc3c2c2ccc(S(=O)(=O)NC4(C#N)CC4)cc2n3-c2nnc(C(F)F)s2)CC1=O [Example 158, N-(1-cyanocyclopropyl)-9-(5-(difluoromethyl)-1,3,4-thiadiazol-2-yl)-4-(4-isobutyl-3-oxopiperazin-1-yl)-9H-pyrimido[4,5-b]indole-7-sulfonamide] | < 100 | < 100
8 | C[C@H]1CN(c2ncnc3c2c2ccc(S(=O)(=O)NC4(C#N)CC4)cc2n3-c2nnc(C(F)F)s2)CCN1CC(F)(F)F [Example 159, (S)-N-(1-cyanocyclopropyl)-9-(5-(difluoromethyl)-1,3,4-thiadiazol-2-yl)-4-(3-methyl-4-(2,2,2-trifluoroethyl)piperazin-1-yl)-9H-pyrimido[4,5-b]indole-7-sulfonamide] | < 100 | 100 to 1000
9 | CO[C@@H]1CCN(c2ncnc3c2c2ccc(S(=O)(=O)NC4(C#N)CC4)cc2n3-c2nnc(C(F)F)s2)C[C@@H]1F [Example 171, N-(1-Cyanocyclopropyl)-9-(5-(difluoromethyl)-1,3,4-thiadiazol-2-yl)-4-((3S,4R)-3-fluoro-4-methoxypiperidin-1-yl)-9H-pyrimido[4,5-b]indole-7-sulfonamide] | < 100 | < 100
10 | CO[C@H]1CCN(c2ncnc3c2c2ccc(S(=O)(=O)NC4(C#N)CC4)cc2n3-c2nnc(C(F)F)s2)C[C@@H]1F [Example 172, N-(1-cyanocyclopropyl)-9-(5-(difluoromethyl)-1,3,4-thiadiazol-2-yl)-4-((3S,4S)-3-fluoro-4-methoxypiperidin-1-yl)-9H-pyrimido[4,5-b]indole-7-sulfonamide] | < 100 | < 100

Second part, led by results:

Row | IC50 [1] [nM] | SMILES | IC50 [2] [nM]
11 | < 100 | CCN1CCN(c2ncnc3c2c2ccc(S(=O)(=O)NC4(C#N)CC4)cc2n3-c2nnc(C(F)F)s2)CC1=O [Example 155, N-(1-cyanocyclopropyl)-9-(5-(difluoromethyl)-1,3,4-thiadiazol-2-yl)-4-(4-ethyl-3-oxopiperazin-1-yl)-9H-pyrimido[4,5-b]indole-7-sulfonamide] | < 100
12 | < 100 | N#CC1(NS(=O)(=O)c2ccc3c4c(N5CCN6CCC[C@H]6C5)ncnc4n(-c4nnc(C(F)F)s4)c3c2)CC1 [Example 160, (S)—N-(1-Cyanocyclopropyl)-9-(5-(difluoromethyl)-1,3,4-thiadiazol-2-yl)-4-(hexahydropyrrolo[1,2-a]pyrazin-2(1H)-yl)-9H-pyrimido[4,5-b]indole-7-sulfonamide] | < 100
13 | < 100 | N#CC1(NS(=O)(=O)c2ccc3c4c(N5CCN6CCOC[C@H]6C5)ncnc4n(-c4nnc(C(F)F)s4)c3c2)CC1 [Example 161, (R)-N-(1-cyanocyclopropyl)-9-(5-(difluoromethyl)-1,3,4-thiadiazol-2-yl)-4-(hexahydropyrazino[2,1-c][1,4]oxazin-8(1H)-yl)-9H-pyrimido[4,5-b]indole-7-sulfonamide] | < 100
14 | < 100 | N#CC1(NS(=O)(=O)c2ccc3c4c(N5CCN6CCOC[C@@H]6C5)ncnc4n(-c4nnc(C(F)F)s4)c3c2)CC1 [Example 162, (S)-N-(1-cyanocyclopropyl)-9-(5-(difluoromethyl)-1,3,4-thiadiazol-2-yl)-4-(hexahydropyrazino[2,1-c][1,4]oxazin-8(1H)-yl)-9H-pyrimido[4,5-b]indole-7-sulfonamide] | < 100
15 | 100 to 1000 | CCN1CCN(c2ncnc3c2c2ccc(S(=O)(=O)NC4(C#N)CC4)cc2n3-c2nnc(C(F)F)s2)C[C@@H]1C [Example 163, (S)-N-(1-cyanocyclopropyl)-9-(5-(difluoromethyl)-1,3,4-thiadiazol-2-yl)-4-(4-ethyl-3-methylpiperazin-1-yl)-9H-pyrimido[4,5-b]indole-7-sulfonamide] | < 100
16 | < 100 | C[C@H]1CN(c2ncnc3c2c2ccc(S(=O)(=O)NC4(C#N)CC4)cc2n3-c2nnc(C(F)F)s2)CCN1CC1CC1 [Example 164, (S)-N-(1-cyanocyclopropyl)-4-(4-(cyclopropylmethyl)-3-methylpiperazin-1-yl)-9-(5-(difluoromethyl)-1,3,4-thiadiazol-2-yl)-9H-pyrimido[4,5-b]indole-7-sulfonamide] | < 100
17 | 100 to 1000 | N#CC1(NS(=O)(=O)c2ccc3c4c(N5CC6OCCOC6C5)ncnc4n(-c4nnc(C(F)F)s4)c3c2)CC1 (centres unmarked) [Example 165, N-(1-Cyanocyclopropyl)-9-(5-(difluoromethyl)-1,3,4-thiadiazol-2-yl)-4-(hexahydro-6H-[1,4]dioxino[2,3-c]pyrrol-6-yl)-9H-pyrimido[4,5-b]indole-7-sulfonamide] | 100 to 1000
18 | < 100 | N#CC1(NS(=O)(=O)c2ccc3c4c(N5CCS(=O)(=O)CC5)ncnc4n(-c4nnc(C(F)F)s4)c3c2)CC1 [Example 166, N-(1-cyanocyclopropyl)-9-(5-(difluoromethyl)-1,3,4-thiadiazol-2-yl)-4-(1,1-dioxidothiomorpholino)-9H-pyrimido[4,5-b]indole-7-sulfonamide] | 100 to 1000
19 | < 100 | N#CC1(NS(=O)(=O)c2ccc3c4c(N5CCN6C(=O)OC[C@H]6C5)ncnc4n(-c4nnc(C(F)F)s4)c3c2)CC1 [Example 167, (R)-N-(1-cyanocyclopropyl)-9-(5-(difluoromethyl)-1,3,4-thiadiazol-2-yl)-4-(3-oxotetrahydro-3H-oxazolo[3,4-a]pyrazin-7(1H)-yl)-9H-pyrimido[4,5-b]indole-7-sulfonamide] | < 100
20 | < 100 | N#CC1(NS(=O)(=O)c2ccc3c4c(N5CCN6C(=O)COC[C@H]6C5)ncnc4n(-c4nnc(C(F)F)s4)c3c2)CC1 [Example 168, (R)—N-(1-Cyanocyclopropyl)-9-(5-(difluoromethyl)-1,3,4-thiadiazol-2-yl)-4-(4-oxohexahydropyrazino[2,1-c][1,4]oxazin-8(1H)-yl)-9H-pyrimido[4,5-b]indole-7-sulfonamide] | < 100
21 | < 100 | N#CC1(NS(=O)(=O)c2ccc3c4c(N5C[C@H]6COC[C@H]6C5)ncnc4n(-c4nnc(C(F)F)s4)c3c2)CC1 [Example 169, N-(1-Cyanocyclopropyl)-9-(5-(difluoromethyl)-1,3,4-thiadiazol-2-yl)-4-((3aR,6aS)-tetrahydro-1H-furo[3,4-c]pyrrol-5(3H)-yl)-9H-pyrimido[4,5-b]indole-7-sulfonamide] | < 100
22 | < 100 | N#CC1(NS(=O)(=O)c2ccc3c4c(N5CCCOCC5)ncnc4n(-c4nnc(C(F)F)s4)c3c2)CC1 [Example 170, N-(1-Cyanocyclopropyl)-9-(5-(difluoromethyl)-1,3,4-thiadiazol-2-yl)-4-(1,4-oxazepan-4-yl)-9H-pyrimido[4,5-b]indole-7-sulfonamide] | < 100
